From PubChem BioAssay AID1607 (NINDS Approved Drug Screening Program, 2009)
Records with an inconclusive call do not appear.

tested on: cells expressing AR112-GFP, GFP fluorescence; test: enhancers of polyQ-expanded androgen receptor AR112-GFP degradation, cell-based, GFP fluorescence (AID 1607)

`CN1CCC[C@@H]1CCO[C@](C)(c1ccccc1)c1ccc(Cl)cc1` and `Clc1ccc(C(OCCN2CCCCC2)c2ccccc2)cc1` (stereo not given) are within 1.5-fold of each other in EC50: 3.12 µM for the first, 3.75 µM for the second.

`COC(=O)[C@H]1[C@H]2C[C@@H]3c4[nH]c5cc(OC)ccc5c4CCN3C[C@H]2C[C@@H](OC(=O)c2cc(OC)c(OC)c(OC)c2)[C@@H]1OC` and `COc1ccc2cc3[n+](cc2c1OC)CCc1cc2c(cc1-3)OCO2` are within 1.5-fold of each other in EC50: 3.75 µM for the first, 3.12 µM for the second.

`Fc1ccc(C(c2ccc(F)cc2)N2CCN(C/C=C/c3ccccc3)CC2)cc1` and `CN(C)C(=O)C(CCN1CCC(O)(c2ccc(Cl)cc2)CC1)(c1ccccc1)c1ccccc1` are the same in EC50: 3.75 µM for the first, 3.75 µM for the second.

`CC(CN(C)C)CN1c2ccccc2Sc2ccccc21` (stereo not given) and `CC(CN(C)C)CN1c2ccccc2CCc2ccccc21` (stereo not given) are the same in EC50: 3.75 µM for the first, 3.75 µM for the second.

`CN1CCN(CCC=C2c3ccccc3Sc3ccc(S(=O)(=O)N(C)C)cc32)CC1` and `CN(C)CCC=C1c2ccccc2C=Cc2ccccc21` are the same in EC50: 3.12 µM for the first, 3.12 µM for the second.

`O=c1cc(-c2ccccc2)oc2c(O)c(O)ccc12` and `CNCCCN1c2ccccc2CCc2ccccc21` are within 1.5-fold of each other in EC50: 2.5 µM for the first, 3.12 µM for the second.

`CCC(C)[C@H]1O[C@]2(C=C[C@@H]1C)C[C@@H]1C[C@@H](C/C=C(\C)[C@@H](OC3C[C@H](OC)C(O[C@H]4C[C@H](OC)[C@@H](O)[C@H](C)O4)[C@H](C)O3)[C@@H](C)/C=C/C=C3\CO[C@@H]4[C@H](O)C(C)=C[C@@H](C(=O)O1)[C@]34O)O2` (stereo not given in full) and `CCc1nc(N)nc(N)c1-c1ccc(Cl)cc1` are the same in EC50: 3.75 µM for the first, 3.75 µM for the second.

Molecule `NCCc1cc(O)c(O)cc1O` has an EC50 of 3.12 µM.
